The record followed here is patent publication US20250101042A1, “KRAS G12D MODULATING COMPOUNDS” (Gilead Sciences, Inc., priority 2023, published 2025).

One assay deals with GDP-loaded KRAS G12D (Homo sapiens, UniProt P01116, G12D). Nature of the assay: KRAS G12D (GDP) Biochemical Assay (TR-FRET probe displacement). It is filed as binding. The note with it: 0.5 nM enzyme, 2 hours at room temperature. The protocol:
Example A. KRAS G12D (GDP) Biochemical Assay
Compounds were tested for binding to GDP-loaded KRAS G12D in a 384-well assay format using a TR-FRET probe displacement assay in buffer consisting of 50 mM Hepes (pH 7.4), 150 mM NaCl, 5 mM MgCl2 and 0.005% Tween-20. […] Compounds were serially diluted (1:3) in DMSO. The LabCyte ECHO Acoustic dispenser system was used to pre-spot the assay plates (384-well Non-Binding Surface plates, Corning, Catalog #3824) with 50 nL of compound. The compounds were pre-incubated with 5 μL of 2× final enzyme concentration for 30 minutes before adding 5 μL of 2× final concentration of Eu-streptavidin and TR-FRET probe (10 μL final reaction volume). The plates were incubated at room temperature for 2 hours before measuring TR-FRET ratio on the Envision plate reader. IC50 values were defined as the compound concentration that causes a 50% decrease in TR-FRET ratio and were calculated using a sigmoidal dose-response model to generate curve fits.

Another assay deals with GP2D (KRAS G12D) cells. The experiment in a line: 2D Cell Viability Assay (CellTiter-Glo). It is filed as cell-based. The settings on record: 4 days, CellTiter-Glo luminescence. As for the experimental part:
Example B. 2D Cell Viability Assay
Compounds were tested in a 384-well format for their ability to inhibit the viability of GP2D (KRAS G12D) cells in 2D assays. Compounds were serially diluted (1:3) in DMSO. The LabCyte ECHO Acoustic dispenser system was used to pre-spot assay plates with 200 nL of test molecule per well. 1000 cells/well (40 μL volume per well) in RPMI medium with 10% FBS, and Penicillin-Streptomycin-Glutamine were plated in pre-spotted 384-well plates (Greiner, Catalog #781076) on the BioTEK EL406 liquid dispenser with a 5 μL dispensing cassette (BioTek 7170011). The plates were incubated at 37° C., 5% CO2 for 4 days before addition of CellTiter-Glo (CTG) reagent and measurement of luminescence signal. EC50 values were defined as the compound concentration that causes a 50% decrease in luminescence signal and were calculated using a sigmoidal dose-response model to generate curve fits.

Sequence of GDP-loaded KRAS G12D (P01116 1-188 isoform P01116-2 G12D): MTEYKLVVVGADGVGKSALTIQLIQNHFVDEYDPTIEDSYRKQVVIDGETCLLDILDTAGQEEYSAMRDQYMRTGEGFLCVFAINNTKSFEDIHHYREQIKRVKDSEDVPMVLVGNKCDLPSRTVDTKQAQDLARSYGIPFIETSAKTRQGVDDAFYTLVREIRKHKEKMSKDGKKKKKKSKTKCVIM

On GDP-loaded KRAS G12D, `C#Cc1c(F)ccc2cc(N)nc(-c3c(F)c4c5c(nc(OC[C@@]67CCCN6C[C@H](F)C7)nc5c3F)N3C[C@H]5CC[C@H](N5)[C@@H]3[C@@H](C)C4)c12` (atropisomer, axis not shown; (aS)) [Example 45, 1-((1S,4R,11S,14S,14aS)-10,12-difluoro-8-(((2R,7aS)-2-fluorotetrahydro-1H-pyrrolizin-7a(5H)-yl)methoxy)-14-methyl-1,2,3,4,5,13,14,14a-octahydro-1,4-epiminoazepino[1′,2′:1,7]azepino[2,3,4-de]quinazolin-11-yl)-8-ethynyl-7-fluoroisoquinolin-3-amine] displayed a half-maximal inhibitory concentration (IC50) of 0.04 nM. This compound returned a half-maximal effective concentration (EC50) with GP2D (KRAS G12D) cells (GP2d, 96 h) of 2.2 nM.

`Cc1cc(N)nc(-c2nc3c4c(nc(OC[C@@]56CCCN5C[C@H](F)C6)nc4c2F)N2C[C@H]4CC[C@H](N4)[C@H]2CC3)c1C(F)(F)F` [Example 1, 6-((5aR,6S,9R)-1-fluoro-12-(((2R,7aS)-2-fluorotetrahydro-1H-pyrrolizin-7a(5H)-yl)methoxy)-4,5,5a,6,7,8,9,10-octahydro-3,10a,11,13,14-pentaaza-6,9-methanonaphtho[1,8-ab]heptalen-2-yl)-4-methyl-5-(trifluoromethyl)pyridin-2-amine] returned a half-inhibitory concentration (IC50) at GDP-loaded KRAS G12D of 0.84 nM. In the assay with GP2D (KRAS G12D) cells (GP2d, 96 h), the EC50 was determined as 16 nM.

As for `Cc1c(F)c(N)nc(-c2nc3c4c(nc(OC[C@@]56CCCN5C[C@H](F)C6)nc4c2F)N2C[C@H]4CC[C@H](N4)[C@H]2CCC3)c1C(F)(F)F` [Example 11, 3-fluoro-6-((6aR,7S,10R)-1-fluoro-13-(((2R,7aS)-2-fluorotetrahydro-1H-pyrrolizin-7a(5H)-yl)methoxy)-5,6,6a,7,8,9,10,11-octahydro-4H-3,11a,12,14,15-pentaaza-7,10-methanocyclohepta[4,5]cycloocta[1,2,3-de]naphthalen-2-yl)-4-methyl-5-(trifluoromethyl)pyridin-2-amine], at GDP-loaded KRAS G12D, the half-maximal inhibitory concentration (IC50) was 12 nM. In addition, in the assay with GP2D (KRAS G12D) cells (GP2d, 96 h), a half-maximal effect (EC50) was put at 34 nM.

For the compound `Cc1cc(N)nc(-c2c(Cl)c3c4c(nc(OC[C@@]56CCCN5C[C@H](F)C6)nc4c2F)N2C[C@H]4CC[C@H](N4)[C@H]2CCC3)c1C(F)(F)F` (single isomer, unassigned) [Example 3], on GDP-loaded KRAS G12D, the half-maximal inhibitory concentration (IC50) was determined as 87 nM. In addition, the EC50 in the assay with GP2D (KRAS G12D) cells was greater than 100 nM.

As to `C[C@H]1Cc2nc(-c3cccc4sc(N)c(C#N)c34)c(F)c3nc(OC[C@@]45CCCN4C[C@H](F)C5)nc(c23)N2C[C@H]3CC[C@H](N3)[C@H]12` [Example 13, 2-amino-4-((5S,5aS,6S,9R)-1-fluoro-12-(((2R,7aS)-2-fluorotetrahydro-1H-pyrrolizin-7a(5H)-yl)methoxy)-5-methyl-4,5,5a,6,7,8,9,10-octahydro-3,10a,11,13,14-pentaaza-6,9-methanonaphtho[1,8-ab]heptalen-2-yl)benzo[b]thiophene-3-carbonitrile], the IC50 at GDP-loaded KRAS G12D was 0.45 nM. Further, the midpoint of the response in the assay on GP2D (KRAS G12D) cells (GP2d, 96 h), the EC50, lay at 2 nM.

As to `C[C@H]1Cc2c(F)c(-c3ccc(F)c4sc(N)c(C#N)c34)c(F)c3nc(OC[C@@]45CCCN4C[C@H](F)C5)nc(c23)N2C[C@H]3CC[C@H](N3)[C@H]12` (atropisomer, axis not shown; (aS)) [Example 34, (S)-2-amino-4-((1S,4R,14S,14aS)-10,12-difluoro-8-(((2R,7aS)-2-fluorotetrahydro-1H-pyrrolizin-7a(5H)-yl)methoxy)-14-methyl-1,2,3,4,5,13,14,14a-octahydro-1,4-epiminoazepino[1′,2′:1,7]azepino[2,3,4-de]quinazolin-11-yl)-7-fluorobenzo[b]thiophene-3-carbonitrile], the IC50 at GDP-loaded KRAS G12D turned out to be 0.08 nM. In the assay on GP2D (KRAS G12D) cells (GP2d, 96 h), this compound registered a 50% effective concentration (EC50) of 0.5 nM.

`C#Cc1c(F)ccc2cc(N)nc(-c3c(Cl)c4c5c(nc(OC[C@@]67CCCN6C[C@H](F)C7)nc5c3F)N3C[C@H]5CC[C@H](N5)[C@H]3CC4)c12` [Example 23, 1-((1S,4R,14aR)-12-chloro-10-fluoro-8-(((2R,7aS)-2-fluorotetrahydro-1H-pyrrolizin-7a(5H)-yl)methoxy)-1,2,3,4,5,13,14,14a-octahydro-1,4-epiminoazepino[1′,2′:1,7]azepino[2,3,4-de]quinazolin-11-yl)-8-ethynyl-7-fluoroisoquinolin-3-amine]: on GDP-loaded KRAS G12D, the half-maximal inhibitory concentration (IC50) came to 0.16 nM. In the assay with GP2D (KRAS G12D) cells (GP2d, 96 h), this compound showed an EC50 of 6.1 nM.

In the case of `Cc1cc(N)[n+]([O-])c(-c2nc3c4c(nc(OC[C@@]56CCCN5C[C@H](F)C6)nc4c2F)N2C[C@H]4CC[C@H](N4)[C@H]2CCC3)c1C(F)(F)F` [Example 8, 6-amino-2-((6aR,7S,10R)-1-fluoro-13-(((2R,7aS)-2-fluorotetrahydro-1H-pyrrolizin-7a(5H)-yl)methoxy)-5,6,6a,7,8,9,10,11-octahydro-4H-3,11a,12,14,15-pentaaza-7,10-methanocyclohepta[4,5]cycloocta[1,2,3-de]naphthalen-2-yl)-4-methyl-3-(trifluoromethyl)pyridine 1-oxide], on GDP-loaded KRAS G12D, the 50% inhibitory concentration (IC50) was greater than 100 nM. The 50% effective concentration (EC50) with GP2D (KRAS G12D) cells (GP2d, 96 h) was greater than 100 nM.

In the case of `C#Cc1c(F)ccc2cc(N)nc(-c3c(F)c4c5c(nc(OC[C@@]67CCCN6C[C@H](F)C7)nc5c3F)N3C[C@H]5CC[C@H](N5)[C@H]3CC4)c12` (atropisomer, axis not shown; (aR)) [Example 62, 1-((1S,4R,11S,14aR)-10,12-difluoro-8-(((2R,7aS)-2-fluorotetrahydro-1H-pyrrolizin-7a(5H)-yl)methoxy)-1,2,3,4,5,13,14,14a-octahydro-1,4-epiminoazepino[1′,2′:1,7]azepino[2,3,4-de]quinazolin-11-yl)-8-ethynyl-7-fluoroisoquinolin-3-amine], the 50% inhibitory concentration (IC50) at GDP-loaded KRAS G12D was 0.03 nM. A half-maximal response in the assay with GP2D (KRAS G12D) cells (GP2d, 96 h) (EC50) required 2.5 nM.

`Cc1cc(N)nc(-c2nc3c4c(nc(OC[C@@]56CCCN5C[C@H](F)C6)nc4c2F)N2C[C@H]4CC[C@H](N4)[C@H]2CCC3)c1C(F)(F)F` [Example 7, 6-((6aR,7S,10R)-1-fluoro-13-(((2R,7aS)-2-fluorotetrahydro-1H-pyrrolizin-7a(5H)-yl)methoxy)-5,6,6a,7,8,9,10,11-octahydro-4H-3,11a,12,14,15-pentaaza-7,10-methanocyclohepta[4,5]cycloocta[1,2,3-de]naphthalen-2-yl)-4-methyl-5-(trifluoromethyl)pyridin-2-amine] gave a concentration for half-maximal inhibition (IC50) at GDP-loaded KRAS G12D of 0.7 nM. The same compound displayed an EC50 in the assay on GP2D (KRAS G12D) cells (GP2d, 96 h) of 11 nM.

`C[C@H]1Cc2c(Cl)c(-c3ncc(F)c4sc(N)c(C#N)c34)c(F)c3nc(OC[C@@]45CCCN4C[C@H](F)C5)nc(c23)N2C[C@H]3CC[C@H](N3)[C@H]12` (atropisomer, axis not shown; (aS)) [Example 56, 2-amino-4-((1S,4R,11S,14S,14aS)-12-chloro-10-fluoro-8-(((2R,7aS)-2-fluorotetrahydro-1H-pyrrolizin-7a(5H)-yl)methoxy)-14-methyl-1,2,3,4,5,13,14,14a-octahydro-1,4-epiminoazepino[1′,2′:1,7]azepino[2,3,4-de]quinazolin-11-yl)-7-fluorothieno[3,2-c]pyridine-3-carbonitrile] yielded a 50% inhibitory concentration (IC50) on GDP-loaded KRAS G12D of 0.11 nM. In addition, the EC50 with GP2D (KRAS G12D) cells (GP2d, 96 h) amounted to 2 nM.
